Assay results reported in patent US9029325B2, “Amylin analogues and pharmaceutical compositions thereof” (Novo Nordisk A/S, priority 2011, dated 2015).
Starred links: 1 amine or outer side, 2 acyl side, 3 side chain; linkers in the order of their positions; H or OH if unused. Positions of bridges follow the written chain, without caps; N, C: chain ends. Residues, ends and D or L forms follow the SMILES beside them. *: point of attachment. C20 diacid = O=C(O)CCCCCCCCCCCCCCCCCCC(=O)*; γGlu = O=C(O)[C@H](CCC(=O)[*:2])N[*:1]

Assays:
[1] = Assay (III) ThT fibrillation assay for physical stability; type: physicochemical
Excerpt: Low physical stability of a polypeptide may lead to amyloid fibril formation, which is observed as well-ordered, thread-like macromolecular structures in the sample eventually resulting in gel formation. This has traditionally been measured by visual inspection of the sample. However, that kind of measurement is very subjective and depending on the observer. Therefore, the application of a small molecule indicator probe is much more advantageous. Thioflavin T (ThT) is such a probe and has a distinct fluorescence signature when binding to fibrils [Naiki et al. (1989) Anal. Biochem. 177, 244-249; LeVine (1999) Methods. Enzymol. […], 274-284].
The time course for fibril formation can be described by a sigmoidal curve with the following expression [Nielsen et al. (2001) Biochemistry 40, 6036-6046]:
[formula] Here, F is the ThT fluorescence at the time t. The constant t0 is the time needed to reach 50% of maximum fluorescence. The two important parameters describing fibril formation are the lag-time calculated by t0−2T and the apparent rate constant kapp=1/τ.
Few of those intermediates nucleate to form a template onto which further intermediates may assembly and the fibrillation proceeds. The lag-time corresponds to the interval in which the critical mass of nucleus is built up and the apparent rate constant is the rate with which the fibril itself is formed.
Samples were prepared freshly before each assay. Each sample composition is described in each example. The pH of the sample was adjusted to the desired value using appropriate amounts of concentrated NaOH and HClO4 or HCl. Thioflavin T was added to the samples from a stock solution in H2O to a final concentration of 1 μM.
Sample aliquots of 200 μl were placed in a 96 well microtiter plate (Packard OptiPlate™-96, white polystyrene). Usually, four or eight replica of each sample (corresponding to one test condition) were placed in one column of wells. The plate was sealed with Scotch Pad (Qiagen).
Incubation at given temperature, shaking and measurement of the ThT fluorescence emission were done in a Fluoroskan Ascent FL fluorescence platereader or Varioskan platereader (Thermo Labsystems). The temperature was adjusted to 37° C. The orbital shaking was adjusted to 960 rpm with an amplitude of 1 mm in all the presented data. Fluorescence measurement was done using excitation through a 444 nm filter and measurement of emission through a 485 nm filter.
Each run was initiated by incubating the plate at the assay temperature for 10 min. The plate was measured every 20 minutes for a desired period of time. Between each measurement, the plate was shaken and heated as described.
The measurement points were saved in Microsoft Excel format for further processing and curve drawing and fitting was performed using GraphPad Prism. The background emission from ThT in the absence of fibrils was negligible. The data points are typically a mean of four or eight samples and shown with standard deviation error bars. Only data obtained in the same experiment (i.e. samples on the same plate) are presented in the same graph ensuring a relative measure of fibrillation […].
The data set may be fitted to Eq. (1). However, since full sigmodial curves in this case are not always achieved during the measurement time, the degree of fibrillation is expressed as ThT fluorescence tabulated as the mean of the samples and shown with the standard deviation at various time points.
The polypeptide concentration in each of the tested formulations were measured both before application in the ThT fibrillation assay (“Initial”) and after completion of the ThT fibrillation (“After ThT assay”). Concentrations were determined by reverse HPLC methods using a pramlintide standard as a reference. Before measurement after completion 150 μl was collected from each of the replica and transferred to an Eppendorf tube. These were centrifuged at 30000 G for 40 mins. […]

[2] = Assay (I) efficacy testing on appetite (food intake), ad libitum fed rat model; type: in vivo, Sprague Dawley (SD) rats; conditions: 3 nmol/kg
How it was run: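 Ad libitum fed SD rats (200-250 g) on a reversed light cycle, housed individually, received a single 0.01-3 mg/kg dose ip, po or sc just before lights-off. Individual food intake recorded hourly for 7 h, then at 24 h and sometimes 48 h, versus vehicle; Grubbs outliers excluded.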

Row | Structure (SMILES) | Th T pH 4.0 lag time (h) ([1]; 37° C., orbital shaking 960 rpm) | ThT pH 4.0 lag time ([1]; Table 9) [hr] | Food intake reduction 0-24 h 3 nmol/kg (%) [2] [%] | Food intake reduction 24-48 h 3 nmol/kg (%) [2] [%]
1 | CC[C@H](C)[C@H](NC(=O)[C@@H]1CCCN1C(=O)CNC(=O)[C@H](Cc1ccccc1)NC(=O)[C@H](CC(N)=O)NC(=O)[C@H](CCC(N)=O)NC(=O)[C@H](CO)NC(=O)[C@H](CO)NC(=O)[C@H](Cc1c[nH]cn1)NC(=O)[C@H](Cc1c[nH]cn1)NC(=O)[C@H](CC(C)C)NC(=O)[C@H](Cc1ccccc1)NC(=O)[C@H](CCC(=O)O)NC(=O)[C@H](C)NC(=O)[C@H](CC(C)C)NC(=O)[C@H](CCCNC(=N)N)NC(=O)[C@H](CCC(N)=O)NC(=O)[C@@H](NC(=O)[C@H](C)NC(=O)[C@@H]1CSSC[C@H](NC(=O)[C@H](CCCCN)NC(=O)CC[C@H](NC(=O)CCCCCCCCCCCCCCCCCCC(=O)O)C(=O)O)C(=O)N[C@@H](CC(N)=O)C(=O)N[C@@H]([C@@H](C)O)C(=O)N[C@@H](C)C(=O)N[C@@H]([C@@H](C)O)C(=O)N1)[C@@H](C)O)C(=O)N[C@@H](CC(C)C)C(=O)N1CCC[C@H]1C(=O)N1CCC[C@H]1C(=O)N[C@H](C(=O)N[C@@H](CC(N)=O)C(=O)N[C@H](C(=O)NCC(=O)N[C@@H](CO)C(=O)N[C@@H](CCC(N)=O)C(=O)N[C@H](C(=O)N1CCC[C@H]1C(N)=O)[C@@H](C)O)C(C)C)[C@@H](C)O [Example 136, N-alpha-[(S)-4-Carboxy-4-(19-carboxynonadecanoylamino)butyryl]-[Glu14, His17, Gln21, Gln35, Pro37]-pramlintide] ({C20 diacid-γGlu}-KCNTATCATQRLAEFLHHSSQNFGPILPPTNVGSQTP-NH2; disulfide 2-7) | >45 | >45 |  | 
2 | CC[C@H](C)[C@H](NC(=O)[C@@H]1CCCN1C(=O)CNC(=O)[C@H](Cc1ccccc1)NC(=O)[C@H](CC(N)=O)NC(=O)[C@H](CC(N)=O)NC(=O)[C@H](CO)NC(=O)[C@H](CO)NC(=O)[C@H](Cc1c[nH]cn1)NC(=O)[C@H](Cc1c[nH]cn1)NC(=O)[C@H](CC(C)C)NC(=O)[C@H](Cc1ccccc1)NC(=O)[C@H](CCC(=O)O)NC(=O)[C@H](C)NC(=O)[C@H](CC(C)C)NC(=O)[C@H](CCCNC(=N)N)NC(=O)[C@H](CCC(N)=O)NC(=O)[C@@H](NC(=O)[C@H](C)NC(=O)[C@@H]1CSSC[C@H](NC(=O)[C@H](CCCCN)NC(=O)CC[C@H](NC(=O)CCCCCCCCCCCCCCCCCCC(=O)O)C(=O)O)C(=O)N[C@@H](CC(N)=O)C(=O)N[C@@H]([C@@H](C)O)C(=O)N[C@@H](C)C(=O)N[C@@H]([C@@H](C)O)C(=O)N1)[C@@H](C)O)C(=O)N[C@@H](CC(C)C)C(=O)N1CCC[C@H]1C(=O)N1CCC[C@H]1C(=O)N[C@H](C(=O)N[C@@H](CC(N)=O)C(=O)N[C@H](C(=O)NCC(=O)N[C@@H](CO)C(=O)N[C@@H](CC(N)=O)C(=O)N[C@H](C(=O)N[C@@H](Cc1ccc(O)cc1)C(N)=O)[C@@H](C)O)C(C)C)[C@@H](C)O [Example 27, N-alpha-[(S)-4-Carboxy-4-(19-carboxynonadecanoylamino)butyryl]-[Glu14,His17]-pramlintide] ({C20 diacid-γGlu}-KCNTATCATQRLAEFLHHSSNNFGPILPPTNVGSNTY-NH2; disulfide 2-7) |  |  | 56 | 53
3 | CC[C@H](C)[C@H](NC(=O)[C@@H]1CCCN1C(=O)CNC(=O)[C@H](Cc1ccccc1)NC(=O)[C@H](CC(N)=O)NC(=O)[C@H](CC(N)=O)NC(=O)[C@H](CO)NC(=O)[C@H](CO)NC(=O)[C@H](CCCNC(=N)N)NC(=O)[C@H](Cc1c[nH]cn1)NC(=O)[C@H](CC(C)C)NC(=O)[C@H](Cc1ccccc1)NC(=O)[C@H](CCC(=O)O)NC(=O)[C@H](C)NC(=O)[C@H](CC(C)C)NC(=O)[C@H](CCCNC(=N)N)NC(=O)[C@H](CCC(N)=O)NC(=O)[C@@H](NC(=O)[C@H](C)NC(=O)[C@@H]1CSSC[C@H](NC(=O)CC[C@H](NC(=O)CCCCCCCCCCCCCCCCCCC(=O)O)C(=O)O)C(=O)NCC(=O)N[C@@H]([C@@H](C)O)C(=O)N[C@@H](C)C(=O)N[C@@H]([C@@H](C)O)C(=O)N1)[C@@H](C)O)C(=O)N[C@@H](CC(C)C)C(=O)N1CCC[C@H]1C(=O)N1CCC[C@H]1C(=O)N[C@H](C(=O)N[C@@H](CCC(=O)O)C(=O)N[C@H](C(=O)NCC(=O)N[C@@H](CO)C(=O)NCC(=O)N[C@H](C(=O)N[C@@H](Cc1ccc(O)cc1)C(N)=O)[C@@H](C)O)C(C)C)[C@@H](C)O [compound 3] ({C20 diacid-γGlu}-CGTATCATQRLAEFLHRSSNNFGPILPPTEVGSGTY-NH2; disulfide 1-6 (inferred); C-terminus assumed) |  |  | 37 | 32
4 | CC[C@H](C)[C@H](NC(=O)[C@@H]1CCCN1C(=O)CNC(=O)[C@H](Cc1ccccc1)NC(=O)[C@H](CC(N)=O)NC(=O)[C@H](CC(N)=O)NC(=O)[C@H](CO)NC(=O)[C@H](CO)NC(=O)[C@H](Cc1c[nH]cn1)NC(=O)[C@H](CCCNC(=N)N)NC(=O)[C@H](CC(C)C)NC(=O)[C@H](Cc1ccccc1)NC(=O)[C@H](CCC(=O)O)NC(=O)[C@H](C)NC(=O)[C@H](CC(C)C)NC(=O)[C@H](CCCNC(=N)N)NC(=O)[C@H](CCC(N)=O)NC(=O)[C@@H](NC(=O)[C@H](C)NC(=O)[C@@H]1CSSC[C@H](NC(=O)[C@H](CCCCN)NC(=O)CC[C@H](NC(=O)CCCCCCCCCCCCCCCCCCC(=O)O)C(=O)O)C(=O)N[C@@H](CC(N)=O)C(=O)N[C@@H]([C@@H](C)O)C(=O)N[C@@H](C)C(=O)N[C@@H]([C@@H](C)O)C(=O)N1)[C@@H](C)O)C(=O)N[C@@H](CC(C)C)C(=O)N1CCC[C@H]1C(=O)N1CCC[C@H]1C(=O)N[C@H](C(=O)N[C@@H](CC(N)=O)C(=O)N[C@H](C(=O)NCC(=O)N[C@@H](CO)C(=O)N[C@@H](Cc1c[nH]cn1)C(=O)N[C@H](C(=O)N[C@@H](Cc1ccc(O)cc1)C(N)=O)[C@@H](C)O)C(C)C)[C@@H](C)O [Example 57, N-alpha-[(S)-4-Carboxy-4-(19-carboxynonadecanoylamino)butyryl]-[Glu14,Arg17,His35]-pramlintide] ({C20 diacid-γGlu}-KCNTATCATQRLAEFLRHSSNNFGPILPPTNVGSHTY-NH2; disulfide 2-7 (inferred); C-terminus assumed) |  |  | 17 | 0
5 | CC[C@H](C)[C@H](NC(=O)[C@@H]1CCCN1C(=O)CNC(=O)[C@H](Cc1ccccc1)NC(=O)[C@H](CC(N)=O)NC(=O)[C@H](CC(N)=O)NC(=O)[C@H](CO)NC(=O)[C@H](CO)NC(=O)[C@H](Cc1c[nH]cn1)NC(=O)[C@H](CCCNC(=N)N)NC(=O)[C@H](CC(C)C)NC(=O)[C@H](Cc1ccccc1)NC(=O)[C@H](CCC(=O)O)NC(=O)[C@H](C)NC(=O)[C@H](CC(C)C)NC(=O)[C@H](CCCNC(=N)N)NC(=O)[C@H](CCC(N)=O)NC(=O)[C@@H](NC(=O)[C@H](C)NC(=O)[C@@H]1CSSC[C@H](NC(=O)[C@H](CCCCN)NC(=O)CC[C@H](NC(=O)CCCCCCCCCCCCCCCCCCC(=O)O)C(=O)O)C(=O)N[C@@H](CC(N)=O)C(=O)N[C@@H]([C@@H](C)O)C(=O)N[C@@H](C)C(=O)N[C@@H]([C@@H](C)O)C(=O)N1)[C@@H](C)O)C(=O)N[C@@H](CC(C)C)C(=O)N1CCC[C@H]1C(=O)N1CCC[C@H]1C(=O)N[C@H](C(=O)N[C@@H](CC(N)=O)C(=O)N[C@H](C(=O)NCC(=O)N[C@@H](CO)C(=O)N[C@@H](CC(N)=O)C(=O)N[C@H](C(=O)N[C@@H](Cc1ccc(O)cc1)C(N)=O)[C@@H](C)O)C(C)C)[C@@H](C)O [compound 50] ({C20 diacid-γGlu}-KCNTATCATQRLAEFLRHSSNNFGPILPPTNVGSNTY-NH2; disulfide 2-7 (inferred); C-terminus assumed) |  |  | 30 | 8
